These results are taken from patent US7012072B2, “Pharmaceutical oxaliplatinum preparation for parenteral administration and method for obtaining same” (Debiopharm S.A., priority 2000, dated 2006).

Holding throughout (format): physicochemical
The nature of data set [1]: Preparation of concentrated oxaliplatin solutions in solvent with hydroxylated derivative. The note with it: solvent with sufficient amount of 1,2-propanediol, glycerol, maltitol, sucrose or inositol. As to the method:
One of the co-solvents chosen from 1,2-propanediol, glycerol and maltitol, respectively, is introduced into the receptacle at the same time as or prior to the addition of water to make the volume up to 25 ml, according to the corresponding volume/volume or weight/volume ratios as indicated in the various tables.
After returning to ambient temperature, namely approximately 20° C., a clarifying filtration operation is optionally carried out in order to ensure clarity.

A short description of data set [2]: Wet heat treatment of oxaliplatin solutions in an autoclave, observation after return to ambient temperature. The note with it: for Observation after storage (black precipitate): degassed with argon; for Observatios: appearance of solution: 24 hours after treatment. The text has this:
The mixtures as obtained by applying the method described in example 1, and according to the relative amounts indicated in table 1, […] well known to a specialist. […]

Data set [3] is described as follows: Wet heat sterilization, three successive cycles at 80° C., observation after 72 hours at refrigerator temperature. Particulars: 10 mg/ml, 3 cycles 80° C. ± 2, 30 min, 24 h standing at approx. 20° C. As to the method: They were then subjected to operations of wet heat sterilization by carrying out three successive cycles of heating at a temperature of 80° C., followed by a return to an ambient temperature of approximately 20° C.
The solutions thus treated were kept, before observation, at refrigerator temperature for 72 hours.

Setting [4] is: 10 mg/ml supersaturated, water for injectable preparation, 80° C. ± 2, 30 min.

Take `O=C1[O][Pt]2([NH][C@@H]3CCCC[C@H]3[NH]2)[O]C1=O` [Oxaliplatin]: the “concentration of oxaliplatin obtained in the preparation” value in data set [1] is listed as “over 7 mg/ml”. Besides, the Observation after storage result in data set [2] (10 mg/ml supersaturated, water for injectable preparation, no co-solvent, 120° C. ± 2, 90 min) is reported as “presence of black precipitate”. The “Observation after storage: appearance of solution” value in data set [2] (setting [4]) is “solution has a clear appearance”. Moreover, the “Observation after storage: precipitate” value in data set [2] (setting [4]) is reported as “no presence of precipitate”. Besides, the “Observation after storage (black precipitate)” value is “presence of” in data set [2] (10 mg/ml, 1,2-propanediol/water 20/20 (V/V), 110° C. ± 2, 120 min); “presence of” in data set [2] (10 mg/ml, 1,2-propanediol/water 20/20 (V/V), 120° C. ± 2, 150 min); “presence of” in data set [2] (10 mg/ml, 85% glycerol/water 20/20 (V/V), 110° C. ± 2, 120 min); “presence of” in data set [2] (10 mg/ml, 85% glycerol/water 20/20 (V/V), 120° C. ± 2, 150 min); “presence of” in data set [2] (10 mg/ml, maltitol/water 50% (m/V), 110° C. ± 2, 120 min); “presence of” in data set [2] (10 mg/ml, maltitol/water 50% (m/V), 120° C. ± 2, 150 min). For the same compound, the “Observatios: appearance of solution” value in data set [2] (10 mg/ml, 1,2-propanediol/water 50/50 (V/V), 70° C. ± 2, 30 min) is “clear”; in data set [2] (10 mg/ml, 85% glycerol/water 50/50 (V/V), 70° C. ± 2, 30 min) it was “clear”; in data set [2] (10 mg/ml, maltitol/water 50% (m/V), 70° C. ± 2, 30 min), “clear”; in data set [2] (12 mg/ml, maltitol/water 30% (m/V), 80° C. ± 2, 30 min) it was “clear”. Besides, the “Observations: appearance of solution” value in data set [3] (1,2-propanediol/water for injectable preparation 50/50 (V/V)), in data set [3] (85% glycerol/water for injectable preparation 50/50 (V/V)) and in data set [3] (maltitol/water for injectable preparation 50% (m/V)) was “clear appearance” each time.
